The source of these data is EP4463162B1, “CONNEXIN 43 FOR USE IN TREATING BRCA1/2-MUTATED CANCER” (Fundación Profesor Novoa Santos, priority 2022, dated 2023).

Molecules are shown by their SMILES. Read-outs that look alike come from different tables or passages of the source.

Experiment [1] deals with HCC1937 cells. Nature of the experiment: Colony formation assay. It counts as cell-based, human. Conditions: 100 µM olaparib, seven days, upon Cx43 restitution. The protocol: For assessing the clonogenic capacity of tumour cells lines, they were plated as single-cell suspensions (5 000-10 000 cells) in 6 or 12-well plates (Corning) and incubated for 6-7 days with media change every 48 h. After this time, they were washed with PBS, fixed with 4 % PFA for 15 min at room temperature and stained with 0.1 % crystal violet dye (Sigma-Aldrich) for 20 min at room temperature. They were then rinsed with PBS, air dried and photographed. The staining was dissolved with 30 % acetic acid for 10 min on a shaker. The eluent was then transferred to a 96-well plate and the absorbance, indicative of colony growth, measured at 570 nm using a NanoQuant microplate reader Infinite M200 (Tecan).
For small extracellular vesicle (sEV) isolation, sEV donor cells were grown in 175 cm^2 flasks (Thermo Fisher Scientific) until 85 % confluence. […] Donor cells final density was calculated, and supernatants derived from the same number of cells were ultracentrifuged at 100 000 x g for 90 min at 4 °C using a Hitachi Ultracentrifuge CP100NX with a P70AT rotor (Hitachi). […]
Cell viability measures were either relativized to untreated controls for each cell line, in order to account for the already reduced proliferation of Cx43-restituted cells (left graph) or reported as raw absorbance values (right graph). […]

Experiment [2] relates to poly(ADP-ribose) (PAR) polymer. Briefly: Global protein PARylation, western blot and immunofluorescence. It counts as cell-based, human. Conditions: 48 and 96 h, western blot. The protocol: 2 000-10 000 cells were plated on glass coverslips (Thermo Fisher Scientific) previously coated with poly-D-lysine hydrobromide (Sigma-Aldrich) and cultured until they were approximately 80 % confluent. They were washed with PBS, fixed with 4 % paraformaldehyde (PFA, Sigma-Aldrich) in PBS for 15 min at room temperature and rinsed twice with PBS. Next, cells were incubated with 0.1 M glycine (Sigma-Aldrich) in distilled water to quench PFA for 10 min at room temperature, and then their membranes were permeabilized with 0.2 % Triton X-100 (Sigma-Aldrich) in PBS for 10 min at room temperature. After two 5 min PBS washes, potential nonspecific antibody binding sites were blocked with 1 % bovine serum albumin (BSA; Sigma-Aldrich) diluted in PBST (PBS+0.1 % Tween 20; Sigma-Aldrich) for 30 min at room temperature. Cells were incubated overnight at 4 °C in the dark with primary antibody (see references in Table 3) diluted in 1 % BSA in PBST. […]
Protein extracts were mixed with loading buffer, which consisted of 10 % (v/v) β-mercaptoethanol (Sigma-Aldrich), 10 % SDS, 50 % (v/v) glycerol, 200 mM Tris-HCl pH 6.8 and 0.1 % bromophenol blue (Sigma-Aldrich). […] Ponceau staining and western blot images were analysed and their band intensities quantitated with Image J software. […]
In general terms: Immunoblotting shows a protein as a band on a membrane.

Experiment [3] concerns cleaved caspase 3, PARP-1. The settings on record: 50 and 100 µM olaparib.
Protocol: Protein extracts were mixed with loading buffer, which consisted of 10 % (v/v) β-mercaptoethanol (Sigma-Aldrich), 10 % SDS, 50 % (v/v) glycerol, 200 mM Tris-HCl pH 6.8 and 0.1 % bromophenol blue (Sigma-Aldrich). They were boiled at 95 °C for 8 min and 20-30 µg protein were loaded into 8, 10 or 15 % acrylamide/bis-acrylamide self-made gels, depending on the molecular weight of the target protein/s to investigate. Gels were run at 80 V for approximately 2 h using a Mini-PROTEAN Tetra electrophoresis system (BioRad), and then transferred to methanol-preactivated polyvinylidene fluoride (PVDF) membranes (Millipore) at 100 V and 4 °C for 1-1.5 h with a Mini Trans-Blot Electrophoretic Transfer Cell (BioRad). Afterwards, membranes with the transferred proteins were stained with ATX Ponceau S red staining solution (Sigma-Aldrich) for 10 min at room temperature, photographed in an Amersham Imager 600 (GE Healthcare) and unstained with distilled water. They were then blocked for 1 h at room temperature with 5 % skim milk (Sigma-Aldrich) diluted in TBST buffer (Tris-buffered saline TBS composed of 20 mM Tris and 150 mM NaCl, supplemented with 0.05 % (v/v) Tween-20, Sigma-Aldrich) with shaking. […] Ponceau staining and western blot images were analysed and their band intensities quantitated with Image J software.

Consider `O=C(c1cc(Cc2n[nH]c(=O)c3ccccc23)ccc1F)N1CCN(C(=O)C2CC2)CC1` [Olaparib, olaparib], for which the “cell viability (colony formation)” value in experiment [1] is reported as “profound decrease in HCC1937 cell viability”. For the same compound, the PAR levels entry in experiment [2] (Cx43_HCC1937, 50/100 µM olaparib) is given as “decreased”; in experiment [2] (EV_HCC1937, 50/100 µM olaparib), “rose”. Besides, the PARP-1 cleavage entry in experiment [3] (Cx43_HCC1937, 96 h) was “strong PARP-1 cleavage”; in experiment [3] (EV_HCC1937, 96 h), “low cleavage levels”.
